Values of other authors in US20110145936A1, “Genetically Modified Rat Models for Pharmacokinetics” (priority 2009, published 2011).
Each block holds one molecule with its values, some of them ahead of it.

Columns and labels:
Slc7a11 = molecular target: T1, Slc7a11 (Homo sapiens, UniProt Q9UPY5); conditions: WT Slc7a11 cells; more sensitive to the GA analog
T1 sequence (Q9UPY5 1-501): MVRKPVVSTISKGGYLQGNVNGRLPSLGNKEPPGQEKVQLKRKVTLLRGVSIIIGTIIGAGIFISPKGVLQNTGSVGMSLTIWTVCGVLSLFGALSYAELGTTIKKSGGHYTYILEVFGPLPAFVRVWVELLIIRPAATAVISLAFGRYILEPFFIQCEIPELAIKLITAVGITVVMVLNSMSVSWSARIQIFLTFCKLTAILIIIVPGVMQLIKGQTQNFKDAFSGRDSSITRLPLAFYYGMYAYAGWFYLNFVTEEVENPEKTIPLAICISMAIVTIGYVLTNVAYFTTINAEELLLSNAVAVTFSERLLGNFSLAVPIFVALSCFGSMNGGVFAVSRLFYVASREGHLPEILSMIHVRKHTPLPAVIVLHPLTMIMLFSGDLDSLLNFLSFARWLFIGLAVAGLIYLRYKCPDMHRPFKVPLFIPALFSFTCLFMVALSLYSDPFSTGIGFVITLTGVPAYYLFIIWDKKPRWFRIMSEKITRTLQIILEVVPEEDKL
T1 sequence (P08195 1-529 partner): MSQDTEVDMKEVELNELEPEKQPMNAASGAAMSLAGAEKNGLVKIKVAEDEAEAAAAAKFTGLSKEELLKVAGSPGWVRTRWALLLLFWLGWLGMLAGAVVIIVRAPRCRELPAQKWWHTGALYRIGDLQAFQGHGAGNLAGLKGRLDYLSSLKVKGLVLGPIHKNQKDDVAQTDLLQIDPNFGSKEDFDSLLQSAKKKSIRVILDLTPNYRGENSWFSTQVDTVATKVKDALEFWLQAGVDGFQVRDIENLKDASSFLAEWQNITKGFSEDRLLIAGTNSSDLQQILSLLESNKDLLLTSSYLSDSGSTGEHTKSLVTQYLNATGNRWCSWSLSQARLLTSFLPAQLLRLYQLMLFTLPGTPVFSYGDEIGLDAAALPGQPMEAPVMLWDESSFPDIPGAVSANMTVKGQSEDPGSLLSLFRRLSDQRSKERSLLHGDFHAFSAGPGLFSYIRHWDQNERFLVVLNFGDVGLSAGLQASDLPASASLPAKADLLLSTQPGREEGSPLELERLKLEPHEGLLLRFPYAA

Abcg2 & Abcb1 = conditions: gene Abcg2 & Abcb1
Abcc1 = Abcc1 (Mus musculus, UniProt O35379); conditions: for white blood cell, bone marrow nucleated cell and spleen myeloid activity: Abcc1 KO mice after etoposide
Chain of Abcc1 (O35379 whole entry): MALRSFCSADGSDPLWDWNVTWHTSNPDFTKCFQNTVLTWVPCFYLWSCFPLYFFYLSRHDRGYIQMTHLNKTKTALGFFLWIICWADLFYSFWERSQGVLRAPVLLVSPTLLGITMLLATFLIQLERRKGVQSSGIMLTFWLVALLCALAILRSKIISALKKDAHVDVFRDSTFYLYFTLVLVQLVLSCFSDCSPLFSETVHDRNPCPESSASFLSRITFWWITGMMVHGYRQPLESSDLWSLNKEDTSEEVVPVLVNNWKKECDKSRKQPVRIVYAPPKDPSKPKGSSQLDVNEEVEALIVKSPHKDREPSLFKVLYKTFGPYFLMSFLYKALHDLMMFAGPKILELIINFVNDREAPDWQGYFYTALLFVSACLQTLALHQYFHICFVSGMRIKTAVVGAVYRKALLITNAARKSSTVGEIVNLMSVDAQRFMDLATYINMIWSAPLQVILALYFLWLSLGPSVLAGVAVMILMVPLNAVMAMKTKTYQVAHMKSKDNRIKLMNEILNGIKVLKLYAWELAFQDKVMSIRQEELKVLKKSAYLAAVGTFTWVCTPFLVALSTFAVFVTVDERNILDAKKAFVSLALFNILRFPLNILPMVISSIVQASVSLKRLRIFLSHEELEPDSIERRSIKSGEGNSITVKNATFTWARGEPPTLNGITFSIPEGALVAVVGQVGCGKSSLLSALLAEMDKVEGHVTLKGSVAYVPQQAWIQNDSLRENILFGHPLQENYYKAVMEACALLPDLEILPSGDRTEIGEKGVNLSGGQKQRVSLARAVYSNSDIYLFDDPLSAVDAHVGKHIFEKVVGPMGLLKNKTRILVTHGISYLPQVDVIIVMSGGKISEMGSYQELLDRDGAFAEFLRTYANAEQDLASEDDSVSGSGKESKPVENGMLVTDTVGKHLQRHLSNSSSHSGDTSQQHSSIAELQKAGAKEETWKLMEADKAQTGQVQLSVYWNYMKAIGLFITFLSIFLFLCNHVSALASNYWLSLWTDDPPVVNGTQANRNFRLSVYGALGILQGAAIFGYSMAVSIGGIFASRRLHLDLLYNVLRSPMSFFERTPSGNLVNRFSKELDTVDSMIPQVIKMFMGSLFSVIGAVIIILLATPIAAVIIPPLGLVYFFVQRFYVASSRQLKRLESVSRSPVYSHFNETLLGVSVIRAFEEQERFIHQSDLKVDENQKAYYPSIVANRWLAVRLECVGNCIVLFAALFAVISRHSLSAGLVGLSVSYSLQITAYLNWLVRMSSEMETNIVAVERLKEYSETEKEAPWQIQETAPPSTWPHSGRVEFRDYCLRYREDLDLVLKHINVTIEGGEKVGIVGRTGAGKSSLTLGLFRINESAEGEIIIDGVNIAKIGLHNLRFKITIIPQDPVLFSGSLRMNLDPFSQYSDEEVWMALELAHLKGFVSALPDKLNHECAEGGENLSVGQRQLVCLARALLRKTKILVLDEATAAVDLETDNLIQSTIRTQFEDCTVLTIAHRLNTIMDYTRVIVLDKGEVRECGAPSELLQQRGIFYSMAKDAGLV

Slc22a8 = Slc22a8 (Mus musculus, UniProt Q9WTW5); conditions: gene Slc22a8
Chain of Slc22a8 (Q9WTW5 whole entry): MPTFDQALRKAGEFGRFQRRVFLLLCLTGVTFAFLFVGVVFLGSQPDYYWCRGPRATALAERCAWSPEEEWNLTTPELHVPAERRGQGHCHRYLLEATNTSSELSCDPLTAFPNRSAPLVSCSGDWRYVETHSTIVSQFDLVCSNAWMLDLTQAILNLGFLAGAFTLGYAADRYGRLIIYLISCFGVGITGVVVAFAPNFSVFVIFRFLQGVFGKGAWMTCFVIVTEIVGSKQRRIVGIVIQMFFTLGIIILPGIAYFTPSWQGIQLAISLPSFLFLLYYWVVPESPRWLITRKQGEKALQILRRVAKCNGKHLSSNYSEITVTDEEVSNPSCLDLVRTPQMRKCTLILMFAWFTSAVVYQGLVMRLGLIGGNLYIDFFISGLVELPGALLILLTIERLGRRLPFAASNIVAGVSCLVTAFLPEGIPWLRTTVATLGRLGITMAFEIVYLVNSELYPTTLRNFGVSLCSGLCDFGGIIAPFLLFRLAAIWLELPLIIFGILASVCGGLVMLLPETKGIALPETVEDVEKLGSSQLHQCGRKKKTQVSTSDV

Abcg2 = molecular target: T2, Abcg2 (Mus musculus, UniProt Q7TMS5); conditions: Abcg2-/- mice vs WT
T2 construct: host or cells: whole animal: WT mice versus Abcg2-/- mice
T2 sequence (Q7TMS5 1-657): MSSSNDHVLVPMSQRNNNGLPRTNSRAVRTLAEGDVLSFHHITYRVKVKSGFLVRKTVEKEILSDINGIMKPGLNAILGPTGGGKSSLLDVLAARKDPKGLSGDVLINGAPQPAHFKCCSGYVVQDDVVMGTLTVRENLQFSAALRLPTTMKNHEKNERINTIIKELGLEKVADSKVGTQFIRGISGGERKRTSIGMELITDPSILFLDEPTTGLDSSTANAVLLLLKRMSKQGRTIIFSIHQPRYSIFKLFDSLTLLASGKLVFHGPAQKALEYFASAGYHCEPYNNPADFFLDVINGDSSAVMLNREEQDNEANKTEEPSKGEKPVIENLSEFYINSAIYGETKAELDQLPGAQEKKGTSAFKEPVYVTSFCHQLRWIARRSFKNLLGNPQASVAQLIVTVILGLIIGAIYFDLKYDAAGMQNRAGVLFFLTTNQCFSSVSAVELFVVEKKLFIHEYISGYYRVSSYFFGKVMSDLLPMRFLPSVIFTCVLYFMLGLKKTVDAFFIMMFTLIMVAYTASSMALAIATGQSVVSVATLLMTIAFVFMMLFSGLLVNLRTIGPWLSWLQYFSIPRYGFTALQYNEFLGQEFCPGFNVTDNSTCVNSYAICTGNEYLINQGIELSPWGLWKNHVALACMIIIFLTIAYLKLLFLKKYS

Abcb11 = Abcb11 (Mus musculus, UniProt Q9QY30)
Chain of Abcb11 (Q9QY30 whole entry): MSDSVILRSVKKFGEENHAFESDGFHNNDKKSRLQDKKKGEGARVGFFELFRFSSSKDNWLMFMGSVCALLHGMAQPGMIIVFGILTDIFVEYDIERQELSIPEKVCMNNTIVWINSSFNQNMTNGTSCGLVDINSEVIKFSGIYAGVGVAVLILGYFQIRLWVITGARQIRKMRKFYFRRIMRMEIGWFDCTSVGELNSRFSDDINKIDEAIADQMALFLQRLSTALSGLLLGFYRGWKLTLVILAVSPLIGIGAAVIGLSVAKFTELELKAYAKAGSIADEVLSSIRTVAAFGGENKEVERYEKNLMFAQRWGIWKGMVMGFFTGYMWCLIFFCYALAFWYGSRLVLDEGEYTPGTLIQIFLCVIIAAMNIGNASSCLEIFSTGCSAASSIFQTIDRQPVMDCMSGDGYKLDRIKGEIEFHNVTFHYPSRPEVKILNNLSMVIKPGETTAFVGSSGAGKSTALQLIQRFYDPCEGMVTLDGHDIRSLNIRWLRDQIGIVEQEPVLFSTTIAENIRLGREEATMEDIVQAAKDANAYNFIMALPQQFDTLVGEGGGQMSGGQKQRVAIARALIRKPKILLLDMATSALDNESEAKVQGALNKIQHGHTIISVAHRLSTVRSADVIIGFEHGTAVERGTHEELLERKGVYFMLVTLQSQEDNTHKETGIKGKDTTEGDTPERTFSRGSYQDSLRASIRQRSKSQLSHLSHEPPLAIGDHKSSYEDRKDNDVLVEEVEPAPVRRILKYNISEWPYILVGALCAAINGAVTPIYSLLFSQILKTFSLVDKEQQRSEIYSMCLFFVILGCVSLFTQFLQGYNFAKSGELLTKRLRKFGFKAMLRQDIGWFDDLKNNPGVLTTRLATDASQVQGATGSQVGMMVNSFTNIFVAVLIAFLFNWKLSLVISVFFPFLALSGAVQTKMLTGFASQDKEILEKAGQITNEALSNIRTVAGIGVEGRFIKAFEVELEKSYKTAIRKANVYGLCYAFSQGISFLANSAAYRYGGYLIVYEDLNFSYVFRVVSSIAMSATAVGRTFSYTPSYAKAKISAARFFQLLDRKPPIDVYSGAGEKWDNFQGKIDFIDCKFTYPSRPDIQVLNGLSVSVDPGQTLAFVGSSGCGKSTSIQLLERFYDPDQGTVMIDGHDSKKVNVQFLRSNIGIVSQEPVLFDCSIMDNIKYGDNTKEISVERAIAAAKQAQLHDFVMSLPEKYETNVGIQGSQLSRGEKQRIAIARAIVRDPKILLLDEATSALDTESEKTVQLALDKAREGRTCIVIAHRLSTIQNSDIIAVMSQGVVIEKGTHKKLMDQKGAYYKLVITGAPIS

[1] = system: leukemia cell lines which express high levels of Slc29a1; conditions: graded levels of azacytidine in the presence of a tight binding Slc29a1 inhibitor
Abcb1 = conditions: for direct liver mediated excretion: Abcb1-/- vs WT mice, cannulation of the gall bladder

sensitivity relative to GA (Slc7a11): 7.2 fold
Compound: C=CCNC1=C2C[C@@H](C)C[C@H](OC)[C@H](O)[C@@H](C)/C=C(\C)[C@H](OC(N)=O)[C@@H](OC)/C=C\C=C(/C)C(=O)NC(=CC1=O)C2=O [17AAG, 17-(allyl-amino)-17 denethoxygelandomycin]

Compound: C(=N\NC1=NCCN1)/c1c2ccccc2c(/C=N/NC2=NCCN2)c2ccccc12 [Bisantrene]
Drug resistance/sensitivity (Abcg2 & Abcb1): Taxol analog (S),

Compound: COc1cc([C@@H]2c3cc4c(cc3[C@@H](O[C@@H]3O[C@@H]5CO[C@@H](C)O[C@H]5[C@H](O)[C@H]3O)[C@H]3COC(=O)[C@H]23)OCO4)cc(OC)c1OP(=O)(O)O [Etoposide phosphate]
toxicity in transporter deficient mice compared to WT (Abcc1; Abcc1-/- vs WT mice, single dose): twice as toxic
white blood cell, bone marrow nucleated cell and spleen myeloid activity (Abcc1): severe depletion

Compound: COc1cc([C@@H]2c3cc4c(cc3[C@@H](O[C@@H]3O[C@@H]5CO[C@@H](C)O[C@H]5[C@H](O)[C@H]3O)[C@H]3COC(=O)[C@H]23)OCO4)cc(OC)c1O [Etoposide]
white blood cell, bone marrow nucleated cell and spleen myeloid activity (Abcc1): depleted in Abcc1 mice.
Drug resistance/sensitivity (Abcc1; gene Abcc1): Etoposide (S)

Drug resistance/sensitivity (Slc22a8): Histamine (S),
Compound: NCCc1c[nH]cn1 [Histamine]

Compound: Cn1c(N)nc2ncc(-c3ccccc3)cc21 [PhIP]
concentration (Abcg2): higher concentration
intestinal excretion (Abcg2): highly impaired

Compound: C[C@H](CCC(=O)NCCS(=O)(=O)O)[C@H]1CC[C@H]2[C@@H]3[C@H](O)C[C@@H]4C[C@H](O)CC[C@]4(C)[C@H]3C[C@H](O)[C@]12C [Taurocholate]
bile acid output increase (Abcb11; WT mice after Taurocholate injection): output; WT mice show a 20-fold
taurocholate output increase (Abcb11; WT mice after tail vein injection): 20 fold

Compound: Nc1ncn([C@@H]2O[C@H](CO)[C@@H](O)[C@H]2O)c(=O)n1 [azacytidine]
loss in cytotoxicity [1]: > 10 fold

direct liver mediated excretion (Abcb1): moderate decrease
Compound: C[C@H]1O[C@@H](O[C@H]2[C@@H](O)C[C@H](O[C@H]3[C@@H](O)C[C@H](O[C@H]4CC[C@@]5(C)[C@H](CC[C@@H]6[C@@H]5C[C@@H](O)[C@]5(C)[C@@H](C7=CC(=O)OC7)CC[C@]65O)C4)O[C@@H]3C)O[C@@H]2C)C[C@H](O)[C@@H]1O [digoxin]

direct liver mediated excretion (Abcb1): moderate decrease
organ penetration (Abcb1; brain, ovaries, adrenal gland and intestine of Abcb1-/- mice): increased penetration
Compound: CC(=O)O[C@H]1C(=O)[C@@]2(C)[C@H]([C@H](OC(=O)c3ccccc3)[C@]3(O)C[C@H](OC(=O)[C@H](O)[C@@H](NC(=O)c4ccccc4)c4ccccc4)C(C)=C1C3(C)C)[C@]1(OC(C)=O)CO[C@@H]1C[C@@H]2O [paclitaxel]
